Measured values taken from PubChem BioAssay (NCI).
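Cells were grown in 96-well plates and exposed to each compound for 48 hours at five concentrations; endpoints were interpolated linearly between bracketing concentrations, or set to the highest concentration if not reached. At the GI50, growth is halved. At the TGI there is no net growth.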

Experiments:
Experiment in all cases: NCI tumour cell line growth inhibition, 48 h
[1] = system: OVCAR-5 ovarian
[2] = system: PC-3 prostate
[3] = system: CAKI-1 renal
[4] = system: UO-31 renal
[5] = system: MDA-MB-231 breast
[6] = system: HCC-2998 colon
[7] = system: ACHN renal
[8] = system: 786-0 renal
[9] = system: BT-549 breast
[10] = system: NCI-H460 lung
[11] = system: SN12C renal
[12] = system: CCRF-CEM leukemia
[13] = system: DU-145 prostate
[14] = system: RXF 393 renal
[15] = system: LOX IMVI melanoma
[16] = system: OVCAR-8 ovarian
[17] = system: SF-539 CNS
[18] = system: SK-MEL-2 melanoma
[19] = system: SNB-19 CNS
[20] = system: K-562 leukemia
[21] = system: SF-268 CNS
[22] = system: SK-OV-3 ovarian
[23] = system: HCT-116 colon
[24] = system: A498 renal
[25] = system: NCI/ADR-RES ovarian
[26] = system: SNB-75 CNS
[27] = system: UACC-62 melanoma
[28] = system: IGROV1 ovarian
[29] = system: M14 melanoma
[30] = system: OVCAR-4 ovarian
[31] = system: SW-620 colon
[32] = system: NCI-H226 lung
[33] = system: MCF7 breast
[34] = system: OVCAR-3 ovarian
[35] = system: NCI-H522 lung
[36] = system: SK-MEL-5 melanoma
[37] = system: TK-10 renal
[38] = system: SK-MEL-28 melanoma
[39] = system: HOP-62 NSCLC
[40] = system: SR leukemia
[41] = system: MOLT-4 leukemia
[42] = system: HL-60(TB) leukemia
[43] = system: HT29 colon
[44] = system: T-47D breast
[45] = system: COLO 205 colon
[46] = system: KM12 colon
[47] = system: MALME-3M melanoma
[48] = system: UACC-257 melanoma
[49] = system: HS 578T breast
[50] = system: A549 NSCLC
[51] = system: EKVX NSCLC
[52] = system: RPMI-8226 leukemia
[53] = system: HOP-92 NSCLC
[54] = system: SF-295 CNS
[55] = system: MDA-MB-435
[56] = system: NCI-H23 lung
[57] = system: U251 CNS
[58] = system: HCT-15 colon

## C=C(C)[C@@H]1CC[C@]2(c3ncc(C)o3)CC[C@]3(C)[C@H](CC[C@@H]4[C@@](C)(CCC#N)[C@H](C(=C)C)CC[C@]43C)[C@@H]12
[1]
  GI50: 8.73 µM
  TGI: 21.1 µM
[2]
  GI50: 1.83 µM
  TGI: 4 µM
[3]
  GI50: 2.8 µM
  TGI: 16.1 µM
[4]
  GI50: 2.4 µM
  TGI: 14.8 µM
[5]
  GI50: 2.53 µM
  TGI: 6.41 µM
[6]
  GI50: 3.51 µM
  TGI: 12.4 µM
[7]
  GI50: 4.65 µM
  TGI: 17.2 µM
[8]
  GI50: 8.23 µM
  TGI: 23.4 µM
[9]
  GI50: 14.4 µM
  TGI: 29.2 µM
[10]
  GI50: 5.42 µM
  TGI: 19.4 µM
[11]
  GI50: 3.16 µM
  TGI: 12.1 µM
[12]
  GI50: 2.93 µM
  TGI: 10.2 µM
[13]
  GI50: 3.54 µM
  TGI: 13.2 µM
[14]
  GI50: 2.14 µM
  TGI: 5.12 µM
[15]
  GI50: 1.95 µM
  TGI: 4.14 µM
[16]
  GI50: 6.57 µM
  TGI: 21.9 µM
[17]
  GI50: 9.05 µM
  TGI: 21.7 µM
[18]
  GI50: 16.4 µM
  TGI: 33.7 µM
[19]
  GI50: 3.66 µM
  TGI: 14.5 µM
[20]
  GI50: 2.99 µM
  TGI: > 100 µM
[21]
  GI50: 4.68 µM
  TGI: 18.9 µM
[22]
  GI50: 11.4 µM
  TGI: 25.2 µM
[23]
  GI50: 4.41 µM
  TGI: 16.4 µM
[24]
  GI50: 14.4 µM
  TGI: 27.8 µM
[25]
  GI50: 3.33 µM
  TGI: 11.9 µM
[26]
  GI50: 2.44 µM
  TGI: 16.6 µM
[27]
  GI50: 2.38 µM
  TGI: 6.96 µM
[28]
  GI50: 5.07 µM
  TGI: 19.1 µM
[29]
  GI50: 7.8 µM
  TGI: 24.2 µM
[30]
  GI50: 4.38 µM
  TGI: 17.3 µM
[31]
  GI50: 5.81 µM
  TGI: 20.8 µM
[32]
  GI50: 3.28 µM
  TGI: 14.5 µM
[33]
  GI50: 2.87 µM
  TGI: 10.5 µM
[34]
  GI50: 4.16 µM
  TGI: 15.5 µM
[35]
  GI50: 1.9 µM
  TGI: 4.16 µM
[36]
  GI50: 3.65 µM
  TGI: 13.7 µM
[37]
  GI50: 14 µM
  TGI: 28.2 µM
[38]
  GI50: 5.42 µM
  TGI: 18.4 µM
[39]
  GI50: 6.99 µM
  TGI: 21.6 µM
[40]
  GI50: 2.75 µM
  TGI: > 100 µM
[41]
  GI50: 2.85 µM
  TGI: 9.82 µM
[42]
  GI50: 2.49 µM
  TGI: 6.83 µM
[43]
  GI50: 3.81 µM
  TGI: 14.8 µM
[44]
  GI50: 3.19 µM
  TGI: 15 µM
[45]
  GI50: 5.79 µM
  TGI: 21.4 µM
[46]
  GI50: 3.89 µM
  TGI: 15.1 µM
[47]
  GI50: 2.65 µM
  TGI: 9.75 µM
[48]
  GI50: 9.02 µM
  TGI: 24.4 µM
[49]
  GI50: 4.3 µM
  TGI: 19.4 µM
[50]
  GI50: 6.19 µM
  TGI: 22.3 µM
[51]
  GI50: 3.13 µM
  TGI: 12.6 µM
[52]
  GI50: 2.44 µM
  TGI: 6.9 µM
[53]
  GI50: 1.56 µM
  TGI: 3.39 µM
[54]
  GI50: 7.22 µM
  TGI: 21.2 µM
[55]
  GI50: 4.87 µM
  TGI: 18 µM
[56]
  GI50: 6.54 µM
  TGI: 21.4 µM
[57]
  GI50: 3.54 µM
  TGI: 13.6 µM
[58]
  GI50: 3.94 µM
  TGI: 17.1 µM
